This note sets out measurements from ChEMBL document CHEMBL1132669, “New generation dopaminergic agents. 7. Heterocyclic bioisosteres that exploit the 3-OH-phenoxyethylamine D2 template” (Bioorg Med Chem Lett, 1999).

The source made the active and inactive calls. The rule behind the calls is not given here.

The target in experiment [1] is T1, D(2) dopamine receptor (Rattus norvegicus, UniProt P61169). In words: Inhibition of [3H]spiperone binding to rat striatal membrane Dopamine receptor D2 low affinity without GTP and sodium.
The target in the next experiment is T2, D(4) dopamine receptor (Homo sapiens, UniProt P21917).
T2 sequence (P21917 whole entry): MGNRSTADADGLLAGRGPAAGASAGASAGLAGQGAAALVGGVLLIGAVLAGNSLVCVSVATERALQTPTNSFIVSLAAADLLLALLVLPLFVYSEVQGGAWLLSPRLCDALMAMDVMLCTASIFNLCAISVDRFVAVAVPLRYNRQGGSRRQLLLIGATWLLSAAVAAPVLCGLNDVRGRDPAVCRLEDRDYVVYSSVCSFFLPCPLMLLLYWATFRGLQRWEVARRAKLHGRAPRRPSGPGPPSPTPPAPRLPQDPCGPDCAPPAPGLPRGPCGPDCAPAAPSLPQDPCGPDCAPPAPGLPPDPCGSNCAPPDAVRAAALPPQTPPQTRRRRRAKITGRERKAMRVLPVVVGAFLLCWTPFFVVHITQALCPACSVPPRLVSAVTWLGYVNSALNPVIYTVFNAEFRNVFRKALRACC
Put plainly: Inhibition of [3H]spiperone binding to human Dopamine receptor D4.4 expressed in CHO cell membranes.

Experiment [2] concerns Mus musculus. Put plainly: Inhibitory activity against apomorphine-induced climbing in mice administered subcutaneously. The experiment is classed as functional. Conditions: sc.
Experiment [3] has as its target D(2) dopamine receptor (Rattus norvegicus) (UniProt P61169). In words: Relative binding affinity for low and hugh affinity type dopamine D2 receptors in rat striatal membranes. Type of experiment: cell membranes. As to conditions: Striatum, Membrane.
In experiment [4] the test system is Mus musculus. In words: Inhibitory activity against Sterotypy in mice administered subcutaneously. Conditions: sc. The experiment is classed as functional.
The target of the next experiment is D(3) dopamine receptor (Homo sapiens, UniProt P35462). Put plainly: Inhibition of [3H]spiperone binding to human Dopamine receptor D3 in CHO cell membranes.
In experiment [5] the target is D(2) dopamine receptor (Homo sapiens, UniProt P14416). Put plainly: Inhibition of [3H]spiperone binding to human Dopamine receptor D2 in CHO cell membranes.
The subject of experiment [6] is Mus musculus. In words: In vivo inhibitory activity against spontaneous locomotory activity in mice administered subcutaneously. The experiment is classed as functional. Conditions: sc.
Experiment [7] addresses T1, D(2) dopamine receptor. In words: Inhibition of [3H]quinpirole binding to rat striatal membrane Dopamine receptor D2 without GTP and sodium.
Experiment [8] relates to Mus musculus. In words: Inhibitory activity against Sterotypy in mice administered subcutaneously at 3 mg/kg; NS is not significant. The experiment is classed as functional, organism-based. Further details: dose 3 mg/kg.
For experiment [9], the system named is Mus musculus. In words: Inhibitory activity against apomorphine-induced climbing in mice administered subcutaneously at 3 mg/kg; NS is not significant. Further details: dose 3 mg/kg. The experiment is classed as functional, organism-based.

The term Ki denotes a measure of affinity in units of concentration, obtained from inhibition or displacement. Higher therefore signals a looser hold on the target. As a reminder, the ED50 is the midpoint of the dose-response relation.

T1 sequence (P61169 whole entry): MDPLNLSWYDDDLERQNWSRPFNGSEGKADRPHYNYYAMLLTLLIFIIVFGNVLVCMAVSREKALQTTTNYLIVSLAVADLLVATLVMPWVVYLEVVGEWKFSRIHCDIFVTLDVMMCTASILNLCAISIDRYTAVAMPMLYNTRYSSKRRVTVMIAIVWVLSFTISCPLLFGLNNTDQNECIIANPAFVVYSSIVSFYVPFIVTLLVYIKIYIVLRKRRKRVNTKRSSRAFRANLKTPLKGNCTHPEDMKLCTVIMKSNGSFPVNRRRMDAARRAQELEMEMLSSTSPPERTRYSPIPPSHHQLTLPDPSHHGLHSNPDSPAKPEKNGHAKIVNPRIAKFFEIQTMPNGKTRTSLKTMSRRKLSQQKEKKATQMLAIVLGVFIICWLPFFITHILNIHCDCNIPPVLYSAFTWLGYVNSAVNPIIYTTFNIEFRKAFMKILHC
Chain of D(2) dopamine receptor (Rattus norvegicus) (P61169 whole entry): as above
Chain of D(2) dopamine receptor (Homo sapiens, UniProt P14416) (P14416 whole entry): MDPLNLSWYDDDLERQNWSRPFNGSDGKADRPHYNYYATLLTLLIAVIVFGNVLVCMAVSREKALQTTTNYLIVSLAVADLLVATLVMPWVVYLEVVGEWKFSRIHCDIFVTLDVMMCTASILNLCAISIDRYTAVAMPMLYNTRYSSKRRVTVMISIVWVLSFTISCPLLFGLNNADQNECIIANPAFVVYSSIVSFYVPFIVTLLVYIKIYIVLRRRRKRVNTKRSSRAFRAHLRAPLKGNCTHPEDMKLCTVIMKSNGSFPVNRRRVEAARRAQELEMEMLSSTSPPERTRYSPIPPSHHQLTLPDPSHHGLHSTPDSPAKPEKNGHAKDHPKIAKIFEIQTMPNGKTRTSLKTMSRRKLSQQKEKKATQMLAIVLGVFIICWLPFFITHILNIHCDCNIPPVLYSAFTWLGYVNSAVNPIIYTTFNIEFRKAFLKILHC
Chain of D(3) dopamine receptor (P35462 whole entry): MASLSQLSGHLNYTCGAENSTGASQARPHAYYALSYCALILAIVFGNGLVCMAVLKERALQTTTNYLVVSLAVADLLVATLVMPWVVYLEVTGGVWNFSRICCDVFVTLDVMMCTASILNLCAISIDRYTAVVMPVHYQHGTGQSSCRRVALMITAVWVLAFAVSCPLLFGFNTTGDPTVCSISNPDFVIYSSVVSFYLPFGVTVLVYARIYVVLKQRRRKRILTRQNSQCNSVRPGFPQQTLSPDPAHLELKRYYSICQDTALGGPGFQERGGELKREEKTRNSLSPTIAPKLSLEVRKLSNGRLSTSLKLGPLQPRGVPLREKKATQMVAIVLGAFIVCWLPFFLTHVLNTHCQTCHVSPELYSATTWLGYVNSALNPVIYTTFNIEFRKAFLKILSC

For `FC(F)(F)c1nc2c(OCCNCc3ccccc3)cccc2[nH]1`, the Ki is 1.9 nM at D(2) dopamine receptor [1]; 3.1 nM at D(4) dopamine receptor; 1.15 nM at D(3) dopamine receptor; 1.75 nM on D(2) dopamine receptor [5]; 0.18 nM at D(2) dopamine receptor [7]. Also, the ED50 stood at 0.09 mg/kg in the experiment with Mus musculus [2], 0.33 mg/kg in the experiment on Mus musculus [4] and 0.007 mg/kg with Mus musculus [6]. In addition, the Ratio in experiment [3] is 10.
As to `O=c1[nH]c2cc(Cl)cc(OCCNCc3ccccc3)c2[nH]1`, the Ki at D(2) dopamine receptor [1] is 2.7 nM; on D(4) dopamine receptor, 15.8 nM; at D(3) dopamine receptor it was 7.4 nM; at D(2) dopamine receptor [5] it was 2.6 nM; at D(2) dopamine receptor [7], 0.25 nM.
As to `Sc1nc2c(OCCNCc3ccccc3)cccc2[nH]1`, the Ratio in [3] turned out to be 14.
With `Cc1nc2c(OCCNCc3ccccc3)cccc2[nH]1`, the Ki came to 26.6 nM at D(2) dopamine receptor [1]; 61.1 nM on D(4) dopamine receptor; 94.6 nM on D(3) dopamine receptor; 15.2 nM at D(2) dopamine receptor [5]; 4.4 nM on D(2) dopamine receptor [7]. Further, the Ratio in [3] was 6.
For the compound `c1ccc(CNCCOc2cccc3[nH]ccc23)cc1`, the figures for the Ki at D(4) dopamine receptor, on D(3) dopamine receptor and on D(2) dopamine receptor [5] were 230 nM, 19.5 nM and 81.8 nM, respectively. The Ratio in [3] was 4.
For the compound `FC(F)(F)c1nc2c(OCCNCc3ccccc3)cc(Cl)cc2[nH]1`, the inhibition constant Ki is 11.6 nM at D(2) dopamine receptor [1]; 7 nM at D(4) dopamine receptor; 41.8 nM on D(3) dopamine receptor; 32.4 nM at D(2) dopamine receptor [5]; 0.71 nM on D(2) dopamine receptor [7]. For the same compound, the Ratio in experiment [3] came to 16. Besides, the ED50 result in the experiment on Mus musculus [8] and with Mus musculus [9] was “inactive” in each case. Moreover, the ED50 in the experiment with Mus musculus [6] came out at 0.35 mg/kg.
Regarding `c1ccc(CNCCOc2cccc3nc[nH]c23)cc1`, the Ki on D(2) dopamine receptor [1] came to 128 nM; at D(4) dopamine receptor it was 51.6 nM; at D(3) dopamine receptor, 67.2 nM; on D(2) dopamine receptor [5] it was 85.6 nM; on D(2) dopamine receptor [7] it was 9.8 nM.
Consider `Oc1cccc(OCCNCc2ccccc2)c1`, for which the Ratio in experiment [3] is 28.
Turning to `S=c1[nH]c2cccc(OCCNCc3ccccc3)c2[nH]1`, the Ki worked out at 2.6 nM on D(2) dopamine receptor [1]; 3.8 nM on D(4) dopamine receptor; 2 nM at D(3) dopamine receptor; 3 nM at D(2) dopamine receptor [5]; 0.18 nM on D(2) dopamine receptor [7].
`O=C1Cc2c(cccc2OCCNCc2ccccc2)N1`: the Ki on D(4) dopamine receptor was 10 nM; on D(3) dopamine receptor, 2.8 nM; at D(2) dopamine receptor [5], 4.25 nM. In addition, the Ratio in experiment [3] was 54.
As to `c1ccc(CNCCOc2cccc3[nH]ncc23)cc1`, the Ki on D(2) dopamine receptor [1] is 35.9 nM; at D(4) dopamine receptor, 315 nM; at D(3) dopamine receptor, 8.8 nM; on D(2) dopamine receptor [5], 79.8 nM; at D(2) dopamine receptor [7], 1.1 nM. In addition, in experiment [3], the Ratio came to 33.
In the case of `Sc1nc2c(OCCNCc3ccccc3)cc(Cl)cc2[nH]1`, the Ki at D(2) dopamine receptor [1] is 4.5 nM; on D(4) dopamine receptor it was 11.2 nM; on D(3) dopamine receptor, 12.2 nM; at D(2) dopamine receptor [5], 6.5 nM; on D(2) dopamine receptor [7], 0.21 nM. For the same compound, in experiment [3], the Ratio came to 21.
For `c1ccc(CNCCOc2cccc3[nH]cnc23)cc1`, the Ratio in [3] amounted to 13.
In the case of `Oc1nc2c(OCCNCc3ccccc3)cc(Cl)cc2[nH]1`, the Ratio in experiment [3] is 11.
On to `O=c1[nH]c2cccc(OCCNCc3ccccc3)c2[nH]1`, for which the figures for the Ki on D(2) dopamine receptor [1], on D(4) dopamine receptor and on D(2) dopamine receptor [7] were 4.7 nM, 6.3 nM and 0.18 nM, respectively.
